Experimental data taken from US20100196264A1, “USE OF SOMATOSTATIN ANALOGS IN MYOCARDIAL PERFUSION IMAGING” (THE BRIGHAM AND WOMEN'S HOSPITAL, INC., priority 2007, published 2010).

B1: cholecystokinin (peptide, UniProt P06307 21-115, looked up)
Cholecystokinin: QPVPPADPAGSGLQRAEEAPRRQLRVSQRTDGESRAHLGALLARYIQQARKAPSGRMSIVKNLQNLDPSHRISDRDYMGWMDFGRRSAEEYEYPS
modifications: Cholecystokinin
notes: gastric stimulant

Columns and labels:
[1] = target: SST1 (Homo sapiens, UniProt P30872); conditions: cited from earlier work
SST1, sequence (P30872 whole entry): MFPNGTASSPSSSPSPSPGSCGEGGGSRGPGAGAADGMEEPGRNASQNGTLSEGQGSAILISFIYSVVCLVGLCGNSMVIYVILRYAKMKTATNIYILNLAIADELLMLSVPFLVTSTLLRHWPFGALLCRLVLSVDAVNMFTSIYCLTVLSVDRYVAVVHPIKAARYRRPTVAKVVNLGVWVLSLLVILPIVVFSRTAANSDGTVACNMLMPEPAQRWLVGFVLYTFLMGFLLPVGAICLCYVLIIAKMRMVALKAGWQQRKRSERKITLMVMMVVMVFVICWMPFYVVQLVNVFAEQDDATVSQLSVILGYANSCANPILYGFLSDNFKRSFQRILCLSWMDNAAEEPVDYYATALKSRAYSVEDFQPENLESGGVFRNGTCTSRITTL

[2] = target: SST3 (Homo sapiens, UniProt P32745); conditions: cited from earlier work
SST3, sequence (P32745 whole entry): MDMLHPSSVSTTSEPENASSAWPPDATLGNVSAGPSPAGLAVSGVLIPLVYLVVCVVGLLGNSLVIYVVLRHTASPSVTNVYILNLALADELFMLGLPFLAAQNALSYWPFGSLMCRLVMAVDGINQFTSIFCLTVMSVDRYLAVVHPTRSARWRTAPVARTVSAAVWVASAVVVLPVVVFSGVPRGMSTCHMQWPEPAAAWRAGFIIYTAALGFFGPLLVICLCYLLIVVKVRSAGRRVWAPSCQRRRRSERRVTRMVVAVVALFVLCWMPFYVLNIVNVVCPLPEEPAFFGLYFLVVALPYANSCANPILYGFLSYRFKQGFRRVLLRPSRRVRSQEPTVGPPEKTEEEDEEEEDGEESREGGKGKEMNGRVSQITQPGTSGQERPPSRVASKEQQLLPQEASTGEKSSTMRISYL

[3] = test system: gastric mucosal blood flow; conditions: fifteen minutes after a single bolus injection; laser Doppler flowmeter; adapted from Surg Endosc (2003) 17: 1570-1572; cited from earlier work
[4] = test system: portal vein flow; conditions: infusion at various infusion concentrations; adapted from Digestion 1999; 60:132-140; cited from earlier work
[5] = test system: extracardiac uptake of radiotracer; test: Myocardial perfusion imaging with periprocedural somatostatin analog (examples); type: in vivo
[6] = target: SST4 (Homo sapiens, UniProt P31391); conditions: cited from earlier work
SST4, sequence (P31391 whole entry): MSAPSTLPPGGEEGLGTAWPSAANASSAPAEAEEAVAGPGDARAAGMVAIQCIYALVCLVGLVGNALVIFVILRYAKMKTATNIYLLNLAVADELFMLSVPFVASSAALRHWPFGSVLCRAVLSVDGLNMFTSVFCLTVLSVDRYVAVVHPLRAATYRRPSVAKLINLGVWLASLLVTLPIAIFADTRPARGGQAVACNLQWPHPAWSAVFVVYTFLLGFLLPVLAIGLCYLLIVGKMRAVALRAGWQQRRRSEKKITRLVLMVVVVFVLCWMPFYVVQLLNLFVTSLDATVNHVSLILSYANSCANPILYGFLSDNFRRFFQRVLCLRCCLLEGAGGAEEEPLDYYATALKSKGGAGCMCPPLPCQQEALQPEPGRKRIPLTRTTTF

[7] = target: SST2 (Homo sapiens, UniProt P30874); conditions: cited from earlier work
SST2, sequence (P30874 whole entry): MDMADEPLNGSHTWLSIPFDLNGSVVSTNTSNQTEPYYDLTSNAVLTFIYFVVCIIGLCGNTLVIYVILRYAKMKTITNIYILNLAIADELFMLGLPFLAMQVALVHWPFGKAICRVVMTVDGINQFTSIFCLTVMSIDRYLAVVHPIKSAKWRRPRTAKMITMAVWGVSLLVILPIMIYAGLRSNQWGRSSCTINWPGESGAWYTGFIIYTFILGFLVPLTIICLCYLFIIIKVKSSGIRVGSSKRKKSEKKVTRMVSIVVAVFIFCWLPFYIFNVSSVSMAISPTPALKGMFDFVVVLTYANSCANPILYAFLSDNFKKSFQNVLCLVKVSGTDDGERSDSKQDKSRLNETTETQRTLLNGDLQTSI

[8] = typical administration at rest; Cardiolite Product Insert; cited from earlier work
[9] = test system: abdominal radiotracer uptake; conditions: literature, cited from earlier work; for obscuring effect of abdominal radiotracer uptake: myocardial perfusion imaging

Molecule	affinity for SST1 (in words) [1]	affinity for SST3 (in words) [2]	affinity for SST4 (in words) [6]	affinity for SST2 (in words) [7]	obscuring effect of abdominal radiotracer uptake [9]	further results
C[C@@H](O)[C@@H]1NC(=O)[C@H](CCCCN)NC(=O)[C@@H](Cc2c[nH]c3ccccc23)NC(=O)[C@H](Cc2ccccc2)NC(=O)[C@@H](NC(=O)[C@H](N)Cc2ccccc2)CSSC[C@@H](C(=O)N[C@H](CO)[C@@H](C)O)NC1=O [Octreotide, octreotide]	virtually no affinity	displaying affinity	virtually no affinity	displaying affinity	–	reduction in gastric mucosal blood flow [3]: 50%; portal vein flow [4]: decrease; extracardiac uptake of radiotracer ([5]; 100 mcg bolus fifteen minutes prior to radiotracer, then 100 mcg per hour constant infusion, adenosine stress): reduced; extracardiac uptake of radiotracer ([5]; 100 mcg bolus ten minutes prior to radiotracer, second 100 mcg bolus ten minutes prior to adenosine stress): reduced
[C-]#[N+]CC(C)(C)OC.[C-]#[N+]CC(C)(C)OC.[C-]#[N+]CC(C)(C)OC.[C-]#[N+]CC(C)(C)OC.[C-]#[N+]CC(C)(C)OC.[C-]#[N+]CC(C)(C)OC.[Tc] [Tc-99m-setsamibi]	–	–	–	–	–	total dose absorbed into the liver [8]: 19%; total dose taken into the heart [8]: 1.2%
Cn1c(=O)c2[nH]cnc2n(C)c1=O [aminophyllin]	–	–	–	–	–	artifacts in images taken after the dipyridamole injection ([9]; used to counter dipyridamole stress): does not prevent artifacts
CC(C)[C@@H]1NC(=O)[C@H](CCCCN)NC(=O)[C@@H](Cc2c[nH]c3ccccc23)NC(=O)[C@H](Cc2ccc(O)cc2)NC(=O)[C@@H](NC(=O)[C@H](N)Cc2ccc3ccccc3c2)CSSC[C@@H](C(=O)N[C@H](C(N)=O)[C@@H](C)O)NC1=O [lanreotide]	virtually no affinity	displaying affinity	virtually no affinity	displaying affinity	–	extracardiac uptake of radiotracer ([5]; 200 mcg bolus thirty minutes prior to radiotracer, then 200 mcg per hour infusion for rest injections, treadmill exercise stress): reduced
CCN(CC)CCNC(=O)c1cc(Cl)c(N)cc1OC [metoclopromide]	–	–	–	–	did not significantly decrease	–
B1	–	–	–	–	without success	–
